The values that follow come from patent US20260167659A1, “STING AGONISTS” (LIGACHEM BIOSCIENCES INC., priority 2022, published 2026).

What is called CC50 is the concentration that lowers cell viability or growth by half.

Data set [1] is described as follows: Normal cell cytotoxicity in PBMCs, CellTiter-Glo. The conditions noted are these: human, read-out: In vitro cell cytotoxicity in PBMCs CC50. Type of data set: cell-based. On the procedure: PBMCs were also purchased from […]™ (#700025.2). The cells (8.0×10^4 cells per well) were seeded in a flat-bottomed 96-well plate in RPMI 1640 medium (Gibco, #22400097) with 10% heat-inactivated FBS and 1× Antibiotic-Antimycotic (Gibco, #15240062) and rested for 24 hours at 37° C. […] After 72 hours, the cell viability was measured using CellTiter-Glo Luminescent Cell Viability Assay (Promega, #G7573) according to the manufacture's instruction. The signal was detected using an EnVision Xcite multilabel reader and data were analyzed using GraphPad Prism 8 software.
To verify the effect of the STING agonist compounds in normal cell cytotoxicity, the PBMCs were treated with the STING agonist compounds for 3 days and measured the percentage of cell death.
(In general: In ATP-based viability assays light output follows the ATP content of the culture.)

Data set [2] relates to Human THP-1 cells. The experiment in a line: THP-1 activation, CD86 and HLA-DR by flow cytometry. The data set is classed as cell-based. The conditions noted are these: THP-1, 5-fold serial dilution from 1 μM, 48 hours. The procedure:
To test the effect of STING agonist compounds described herein in the activation of innate and adaptive immune cells, flow cytometry (FACS) was performed. Human THP-1 cells (Korean Cell Line Bank, #40202) and PBMCs were seeded at 1.2×10^5 cells per well in a round-bottomed 96-well plate in RPMI 1640 medium (Gibco, #22400097) supplemented with 10% heat-inactivated FBS and 1× Antibiotic-Antimycotic (Gibco, #15240062) and rested for 24 hours at 37° C. The cells were stimulated with the STING agonist compounds as described; For THP-1 stimulation, the cells were treated with the STING agonist compound (Compound 313) in a 5-fold serial dilution from 1 μM for 48 hours. The induction of cell surface activation markers, CD86 (co-stimulatory molecule) and HLA-DR (MHC-class II), was measured by flow cytometry. […] For flow cytometry analysis, the stimulated cells were centrifuged at 300 g for 5 minutes at 4° C., and then resuspended in FACS buffer (2% FBS, 2 mM EDTA in PBS). […] Subsequently, the cells were stained with fluorescence-conjugated antibodies against CD8, CD3, CD56, and CD69 for CD8 T and NK cells activation and against CD86 and MHC-II for THP-1 naïve cells activation for 40 minutes at 4° C. After washing three times with FACS buffer, the cells were resuspended in FACS buffer and analyzed by FACSlyric (BD bioscience). The data were analyzed with Flowjo 9.0 software (BD bioscience).
Background: In flow cytometry, cells or beads pass a laser one at a time.

Data set [3] concerns EMT6 cells. The data set is described as follows: In vivo efficacy, EMT6 syngeneic mouse model. Further details: species or system BALB/c mice. The conditions noted are these: FIG. 12. On the procedure:
Female BALB/c mice (KOTECH, South Korea) with 6 weeks of age, were used for all studies that were completed under the approval of the Legochembio Science's Institutional Animal Care and Use Committee (IACUC). CT26 or EMT6 cells (American Type Culture Collection (ATCC), #CRL-2638, #CRL-2755) were maintained in RPMI 1640 medium (Gibco, #22400097) supplemented with 10% heat-inactivated FBS and 1× Antibiotic-Antimycotic (Gibco, #15240062) at 37° C. with 5% CO2. The mycoplasma-negative cells were used for all experiments and mycoplasma test was done regularly using e-Myco™ VALiD Mycoplasma PCR Detection Kit (iNtRON biotechnology, #25239). CT26 cells (2×10^5 cells/mouse) or EMT6 cells (5×10^5 cells/mouse) in PBS were implanted subcutaneously into the shaved right flank. Tumor volumes and body weights were measured every 3 to 4 days, and the tomor volumes were calculated according to the formula 0.5×(length)×(width)^2.
Specifically, to determine in vivo efficacy of STING agonist compounds (Compound 214 and 221) in CT26 syngeneic mouse model, when tumor volume reached 70 mm^3, each compound was given at 1.5 mg/kg intravenously every 3 or 4 days (total three times). […] To determine in vivo efficacy of STING agonist compound (Compound 313) in EMT6 syngeneic mouse model, when tumor volume 100 mm^3, the compound was given at the indicated doses intravenously once weekly for 3 weeks except for the dose at 0.05 mg/kg twice a week.
A syngeneic system was used to assess the ability of the STING agonist compounds to induce immune responses and drive an anti-tumor immune response. In both CT26 and EMT6 syngeneic models, the STING agonist compounds remarkably controlled tumor growth at various doses (FIGS. 7 to 12).
Compound 313 also eliminated tumors in all groups (1 out of 5 for 0.05 mg/kg, 2 out of 5 for 0.1 mg/kg, 5 out of 5 for both 0.3 and 0.6 mg/kg) in EMT6 model (FIG. 12).

Data set [4] is described as follows: Normal cell cytotoxicity in CD34+ HSC, CellTiter-Glo. The data set is classed as cell-based. The conditions noted are these: human, CD34+ hematopoietic stem cells (HSCs), read-out: In vitro cell cytotoxicity in CD34+ HSC CC50. On the procedure:
The CD34^+ hematopoietic stem cells (HSCs) were purchased from […]™ (#70002.3). The cells (2×10^4 cells per well) were cultured in StemSpan™ SFEM II medium supplemented with StemSpan™ CD34+ Expansion Supplement (#02691) in a 6-well plate at 37° C. for 7 days. On day 3 or 4, an equal volume of fresh complete medium was added into the cell culture. On day 7, the cells (4×10^4 cells per well) were seeded in a 96-well white plate and rested for 24 hours in the same condition.
After 72 hours, the cell viability was measured using CellTiter-Glo Luminescent Cell Viability Assay (Promega, #G7573) according to the manufacture's instruction. The signal was detected using an EnVision Xcite multilabel reader and data were analyzed using GraphPad Prism 8 software.

In the case of `CCn1nc(C)cc1C(=O)Nc1nc2cc(C(N)=O)cc(OC/C=C/Cn3cc(NC(=O)OCc4ccc(O[C@@H]5O[C@H](C(=O)O)[C@@H](O)[C@H](O)[C@H]5O)c(C(=O)NCCOCCOCCN(C)C)c4)cn3)c2n1C/C=C/Cn1c(NC(=O)c2cc(C)nn2CC)nc2cc(C(N)=O)cc(OCCCC(=O)O)c21` [Compound 313], the CC50 at 72 h came out at 98 nM in data set [1] and 44.5 nM in data set [4]. The “co-stimulatory molecule CD86 on cell surface” value in data set [2] (FIG. 3A) is given as “Up-regulation”. The “MHC class II molecule HLA-DR on cell surface” value in data set [2] (FIG. 3B) is given as “Up-regulation”. Moreover, the “mice with tumors eliminated” value in data set [3] (0.05 mg/kg intravenously twice a week) is listed as 1 out of 5; in data set [3] (0.1 mg/kg intravenously once weekly for 3 weeks), 2 out of 5; in data set [3] (0.3 mg/kg intravenously once weekly for 3 weeks), 5 out of 5; in data set [3] (0.6 mg/kg intravenously once weekly for 3 weeks), 5 out of 5.
